Results from article PMC7265429, “Characterization of a new small-molecule inhibitor of HDAC6 in glioblastoma” (Cell Death & Disease, 2020).

Tested on: GNS166 cells
Assay: Microarray whole-transcriptome gene expression analysis
Format: cell-based, human
Method: Whole-transcriptome analysis was performed from 300 ng of RNA using HuGene-2_0-st-v1 expression array (Affymetrix), which covers 48,226 transcripts. Raw data were first checked for quality purposes through the Affymetrix® Expression Console™ Software v1.4.1 and TAC software v4.0. Then, data were normalized using the Robust Multi-array Average (RMA) and analyzed by Limma tool. Probesets with FDR-corrected p-values smaller than 0.05 were selected. Functional enrichment on Gene Ontology (GO) biological processes was performed on a smaller subset of the differentially expressed genes (corrected p-value < 0.001) by means of Broad Institute GSEA. […] The data that support this study have been deposited in NCBI´s Gene Expression Omnibus and are accessible through GEO series accession number GSE143887.

[1] = sheet DMSO-SAHA_DOWN, microarray

O=C(CCCCCCC(=O)Nc1ccccc1)NO [SAHA, Suberoylanilide hydroxamic acid]
logFC ZNF85 (DMSO vs SAHA, downregulated, transcript TC1900007502.hg.1): -1.299 | logFC ZNF254 (DMSO vs SAHA, downregulated, transcript TC1900007622.hg.1): -1.436 | logFC AXL (DMSO vs SAHA, downregulated, transcript TC1900008143.hg.1): -2.335 | logFC KEAP1 (DMSO vs SAHA, downregulated, transcript TC1900009630.hg.1): -1.437 | logFC EMP3 (DMSO vs SAHA, downregulated, transcript TC1900011774.hg.1): -1.798 | logFC UBE2C (DMSO vs SAHA, downregulated, transcript TC2000007503.hg.1): -1.95 | logFC JPH2 (DMSO vs SAHA, downregulated, transcript TC2000009178.hg.1): -1.382 | logFC ZFP64 (DMSO vs SAHA, downregulated, transcript TC2000009469.hg.1): -1.251 | logFC AURKA (DMSO vs SAHA, downregulated, transcript TC2000009550.hg.1): -1.686 | logFC UCKL1 (DMSO vs SAHA, downregulated, transcript TC2000009848.hg.1): -1.222 | logFC MX1 (DMSO vs SAHA, downregulated, transcript TC2100007208.hg.1): -1.686 | logFC COL6A1 (DMSO vs SAHA, downregulated, transcript TC2100007446.hg.1): -1.16 | logFC SUMO3 (DMSO vs SAHA, downregulated, transcript TC2100008385.hg.1): -1.431 | logFC TRIOBP (DMSO vs SAHA, downregulated, transcript TC2200007313.hg.1): -1.456 | logFC MICALL1 (DMSO vs SAHA, downregulated, transcript TC2200007324.hg.1): -1.322 | logFC ZC3H7B (DMSO vs SAHA, downregulated, transcript TC2200007467.hg.1): -1.779 | logFC GTSE1 (DMSO vs SAHA, downregulated, transcript TC2200007662.hg.1): -1.615 | logFC TXNRD2 (DMSO vs SAHA, downregulated, transcript TC2200008001.hg.1): -1.47 | logFC PATZ1 (DMSO vs SAHA, downregulated, transcript TC2200008477.hg.1): -1.5057 | logFC NDUFA6 (DMSO vs SAHA, downregulated, transcript TC2200008859.hg.1): -1.148 | logFC APOBEC3B (DMSO vs SAHA, downregulated, transcript TC2200009270.hg.1): -1.723 | logFC APOBEC3C (DMSO vs SAHA, downregulated, transcript TC2200009271.hg.1): -1.685 | logFC RBX1 (DMSO vs SAHA, downregulated, transcript TC2200009278.hg.1): -1.233 | logFC TRMU (DMSO vs SAHA, downregulated, transcript TC2200009288.hg.1): -1.487 | logFC KIF15 (DMSO vs SAHA, downregulated, transcript TSUnmapped00000255.hg.1): -1.857 | logFC KIF15 (DMSO vs SAHA, downregulated, transcript TSUnmapped00000627.hg.1): -1.713 | logFC AES (transcript TC1900009272.hg.1) [1]: -1.167 | logFC APOBEC3G (transcript TC2200009274.hg.1) [1]: -1.162 | logFC ATF7 (transcript TC1200010809.hg.1) [1]: -0.8995 | logFC ATG4D (transcript TC1900006989.hg.1) [1]: -0.9381 | logFC ATP5G2 (transcript TC1200012798.hg.1) [1]: -0.8974 | logFC ATXN10 (transcript TC2200007626.hg.1) [1]: -0.8219 | logFC AVEN (transcript TC1500008971.hg.1) [1]: -1.4 | logFC B4GALT2 (transcript TC0100008082.hg.1) [1]: -1.044 | logFC BORCS7-ASMT (transcript TC1000012497.hg.1) [1]: -1.471 | logFC C1QBP (transcript TC1700012341.hg.1) [1]: -0.864 | logFC CARD8 (transcript TC1900011061.hg.1) [1]: -1.473 | logFC CD109 (transcript TC0600008539.hg.1) [1]: -1.058 | logFC CDC25B (transcript TC2000006559.hg.1) [1]: -1.166 | logFC COMT (transcript TC2200006623.hg.1) [1]: -1.056 | logFC CXCL14 (transcript TC0500012107.hg.1) [1]: -1.597 | logFC DENND2A (transcript TC0700012813.hg.1) [1]: -1.223 | logFC EOGT (transcript TC0300011448.hg.1) [1]: -1.387 | logFC FAM65B (transcript TC0600014247.hg.1) [1]: -1.186 | logFC FAM83D (transcript TC2000007341.hg.1) [1]: -1.0787 | logFC FBXO32 (transcript TC0800011683.hg.1) [1]: -1.239 | logFC FHL2 (transcript TC0200013750.hg.1) [1]: -1.323 | logFC GYG1 (transcript TC0300009126.hg.1) [1]: -0.8272 | logFC H2AFY2 (transcript TC1000007913.hg.1) [1]: -1.438 | logFC HGSNAT (transcript TC0800007460.hg.1) [1]: -1.179 | logFC HIST1H1E (transcript TC0600007273.hg.1) [1]: -0.9296 | logFC HIST1H2AK (transcript TC0600011228.hg.1) [1]: -1.094 | logFC HIST1H3G (transcript TC0600011142.hg.1) [1]: -1.091 | logFC HIST2H2AB (transcript TC0100015711.hg.1) [1]: -1.264 | logFC HMGB2 (transcript TC0400012432.hg.1) [1]: -1.248 | logFC HNF4G (transcript TC0800008002.hg.1) [1]: -1.665 | logFC HOXB6 (transcript TC1700012433.hg.1) [1]: -0.9482 | logFC HOXB7 (transcript TC1700012434.hg.1) [1]: -1.178 | logFC HSF2BP (transcript TC2100008306.hg.1) [1]: -1.094 | logFC KAT7 (transcript TC1700008216.hg.1) [1]: -0.9549 | logFC KIF15 (transcript TSUnmapped00000127.hg.1) [1]: -1.52 | logFC KIF15 (transcript TSUnmapped00000190.hg.1) [1]: -1.209 | logFC KIF15 (transcript TSUnmapped00000242.hg.1) [1]: -1.3548 | logFC KPNA2 (transcript TC1700008719.hg.1) [1]: -0.848 | logFC KRTCAP2 (transcript TC0100018498.hg.1) [1]: -0.9489 | logFC LOXL1 (transcript TC1500007829.hg.1) [1]: -1.906 | logFC LRRC41 (transcript TC0100014050.hg.1) [1]: -1.4599 | logFC MCPH1 (transcript TC0800006557.hg.1) [1]: -1.179 | logFC MRPL15 (transcript TC0800007653.hg.1) [1]: -1.399 | logFC MSRA (transcript TC0800006697.hg.1) [1]: -0.9684 | logFC MYBL2 (transcript TC2000007438.hg.1) [1]: -1.297 | logFC NCAPG2 (transcript TC0700013290.hg.1) [1]: -1.083 | logFC NFKB1 (transcript TC0400008271.hg.1) [1]: -1.316 | logFC NQO1 (transcript TC1600010732.hg.1) [1]: -1.465 | logFC PKNOX1 (transcript TC2100007278.hg.1) [1]: -1.264 | logFC PRRC2A (transcript TC0600007599.hg.1) [1]: -0.9194 | logFC PTPRE (transcript TC1000009296.hg.1) [1]: -0.9151 | logFC PTRHD1 (transcript TC0200011990.hg.1) [1]: -0.8388 | logFC RHNO1 (transcript TC1200012573.hg.1) [1]: -1.078 | logFC RUNX2 (transcript TC0600008146.hg.1) [1]: -1.088 | logFC SAMD9L (transcript TC0700011797.hg.1) [1]: -1.884 | logFC SCG2 (transcript TC0200015865.hg.1) [1]: -0.9206 | logFC SLC47A2 (transcript TC1700010035.hg.1) [1]: -1.04 | logFC SMARCB1 (transcript TC2200006862.hg.1) [1]: -1.487 | logFC TAPBP (transcript TC0600011536.hg.1) [1]: -0.9356 | logFC TAS2R13 (transcript TC1200009921.hg.1) [1]: -1.256 | logFC TFDP1 (transcript TC1300008144.hg.1) [1]: -0.8938 | logFC TK2 (transcript TC1600011551.hg.1) [1]: -1.009 | logFC TNFRSF12A (transcript TC1600006652.hg.1) [1]: -0.9964
